Patent US20260176320A1, “MODULATORS OF G-PROTEIN COUPLED RECEPTORS” (priority 2018, published 2026)
Read-outs that look alike come from different tables or passages of the source. Numbered stars: 1 amine (or outer) side, 2 acyl side, 3 side chain; on linkers, the order of the positions; unused ones are H or OH. Square brackets hold non-standard residues; d marks the D form. Side chains are listed from the residue outwards. Peptide text beside a SMILES is read from it. * marks the point of attachment. Ala(1H-tetrazol-5-yl) = N[C@@H](Cc1nnn[nH]1)C(=O)O; γGlu = O=C(O)[C@H](CCC(=O)[*:2])N[*:1]; Palmitoyl = CCCCCCCCCCCCCCCC(=O)*; X3 = O=C(CSCC(=O)*)NCCn1ccccc1=O; X6 = O=C(CSCC(=O)*)NCCN1CCCCC1=O; Aib = CC(C)(N)C(=O)O

Experiments:
Format in all cases: cell-based
GLP-1R [1] = biological target: T1, GLP-1R (Homo sapiens, UniProt P43220); assay: HitHunter cAMP assay (GLP-1R); settings: cAMP; for Emax: read-out: (Emax) GLP-1R; for EC50: read-out: EC50 GLP-1R/nM
T1 sequence (P43220 24-463): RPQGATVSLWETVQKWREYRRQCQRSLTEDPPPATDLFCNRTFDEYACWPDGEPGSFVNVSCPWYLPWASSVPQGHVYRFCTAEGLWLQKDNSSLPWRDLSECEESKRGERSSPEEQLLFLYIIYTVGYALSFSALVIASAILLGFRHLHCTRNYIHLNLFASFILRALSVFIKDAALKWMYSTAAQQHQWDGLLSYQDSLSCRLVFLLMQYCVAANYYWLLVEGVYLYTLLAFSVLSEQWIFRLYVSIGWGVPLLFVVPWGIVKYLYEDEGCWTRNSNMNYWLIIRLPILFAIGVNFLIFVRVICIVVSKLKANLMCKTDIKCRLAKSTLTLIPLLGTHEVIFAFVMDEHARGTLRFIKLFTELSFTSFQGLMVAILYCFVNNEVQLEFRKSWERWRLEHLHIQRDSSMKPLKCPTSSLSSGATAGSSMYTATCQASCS
Method in brief: (§1)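 cAMP, luminescence read: agonist 22-pt 2× dilution in DMSO, duplicate, 30 min RT on 10,000 cells/well in 1×HBSS/10 mM HEPES/625 μM IBMX/0.2% BSA; anti-cAMP reagent 1 h RT dark, then O/N RT dark before read.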

GIP-R = biological target: T2, GIP-R (Homo sapiens, UniProt P48546); assay: HitHunter cAMP assay (GIP-R); settings: cAMP; for Emax: read-out: (Emax) GIP-R; for EC50: read-out: EC50 GIP-R/nM
T2 sequence (P48546 22-466): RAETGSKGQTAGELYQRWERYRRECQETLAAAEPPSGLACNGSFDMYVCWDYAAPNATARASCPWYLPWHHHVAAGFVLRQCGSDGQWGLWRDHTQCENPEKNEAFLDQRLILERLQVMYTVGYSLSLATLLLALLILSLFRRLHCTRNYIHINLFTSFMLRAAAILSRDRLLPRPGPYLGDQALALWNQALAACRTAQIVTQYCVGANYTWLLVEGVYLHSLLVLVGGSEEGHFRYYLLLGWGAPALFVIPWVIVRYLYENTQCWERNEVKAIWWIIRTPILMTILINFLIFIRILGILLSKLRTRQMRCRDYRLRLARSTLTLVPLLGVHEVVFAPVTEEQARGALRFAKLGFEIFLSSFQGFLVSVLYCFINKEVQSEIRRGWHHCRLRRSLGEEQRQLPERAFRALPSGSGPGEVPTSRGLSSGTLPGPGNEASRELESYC
Method in brief: as §1

GLP-1R [2] = biological target: T1, GLP-1R; assay: PathHunter β-arrestin assay; settings: PathHunter β-arrestin assay; read-out: β-arrestin activity EC50
Method in brief: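 Luminescence read-out of β-arrestin recruitment (enzyme-fragment complementation detection, 3 h at room temperature in the dark) after 90 min agonist stimulation at 37 °C. Agonists tested as 22-point 2× serial dilutions in duplicate, in medium containing 0.2% BSA.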

CCCCCCCCCCCCCCCC(=O)N[C@@H](CCC(=O)NCCCC[C@H](NC(=O)[C@H](CO)NC(=O)[C@@H]1CCCN1C(=O)[C@@H]1CCCN1C(=O)[C@@H]1CCCN1C(=O)[C@H](C)NC(=O)CNC(=O)[C@H](CO)NC(=O)[C@H](CO)NC(=O)[C@@H]1CCCN1C(=O)CNC(=O)CNC(=O)[C@H](C)NC(=O)[C@H](CC(C)C)NC(=O)[C@H](CC(C)C)NC(=O)[C@H](Cc1c[nH]c2ccccc12)NC(=O)[C@H](CC(N)=O)NC(=O)[C@@H](NC(=O)[C@H](Cc1ccccc1)NC(=O)[C@H](CCC(=O)O)NC(=O)C(C)(C)NC(=O)[C@H](C)NC(=O)[C@H](C)NC(=O)[C@H](CCC(N)=O)NC(=O)[C@H](CCCCN)NC(=O)[C@H](CC(=O)O)NC(=O)[C@H](CC(C)C)NC(=O)[C@H](Cc1ccc(O)cc1)NC(=O)[C@@H](NC(=O)[C@H](CO)NC(=O)[C@H](Cc1ccc(O)cc1)NC(=O)[C@H](CC(=O)O)NC(=O)[C@H](CO)NC(=O)[C@@H](NC(=O)[C@H](Cc1ccccc1)NC(=O)[C@@H](NC(=O)CNC(=O)[C@H](Cc1nn[nH]n1)NC(=O)CSCC(=O)NCCN1CCCCC1=O)[C@@H](C)O)[C@@H](C)O)[C@@H](C)CC)C(C)C)C(N)=O)C(=O)O [Compound 223] (X6-[Ala(1H-tetrazol-5-yl)]GTFTSDYSIYLDKQAA[Aib]EFVNWLLAGGPSSGAPPPSK([γGlu-Palmitoyl])-NH2)
Emax (GLP-1R [1]; Table 3A): 101%
EC50 (GLP-1R [1]; Table 3A): < 0.1 nM
Emax (GIP-R; Table 3A): 91%
EC50 (GIP-R; Table 3A): 0.1 to 1 nM
EC50 (GLP-1R [2]): 10 to 1000 nM

CC[C@H](C)[C@H](NC(=O)[C@H](CO)NC(=O)[C@H](Cc1ccc(O)cc1)NC(=O)[C@H](CC(=O)O)NC(=O)[C@H](CO)NC(=O)[C@@H](NC(=O)[C@H](Cc1ccccc1)NC(=O)[C@@H](NC(=O)CNC(=O)[C@H](CCC(=O)O)NC(=O)CSCC(=O)NCCn1ccccc1=O)[C@@H](C)O)[C@@H](C)O)C(=O)N[C@@H](Cc1ccc(O)cc1)C(=O)N[C@@H](CC(C)C)C(=O)N[C@@H](CC(=O)O)C(=O)N[C@@H](CCCCN)C(=O)N[C@@H](CCC(N)=O)C(=O)N[C@@H](C)C(=O)N[C@@H](C)C(=O)NC(C)(C)C(=O)N[C@@H](CCC(=O)O)C(=O)N[C@@H](Cc1ccccc1)C(=O)N[C@H](C(=O)N[C@@H](CC(N)=O)C(=O)N[C@@H](Cc1c[nH]c2ccccc12)C(=O)N[C@@H](CC(C)C)C(=O)N[C@@H](CC(C)C)C(=O)N[C@@H](C)C(=O)NCC(=O)NCC(=O)N1CCC[C@H]1C(=O)N[C@@H](CO)C(=O)N[C@@H](CO)C(=O)NCC(=O)N[C@@H](C)C(=O)N1CCC[C@H]1C(=O)N1CCC[C@H]1C(=O)N1CCC[C@H]1C(=O)N[C@@H](CO)C(=O)N[C@@H](CCCCN)C(N)=O)[C@@H](C)CC [Compound 118] (X3-EGTFTSDYSIYLDKQAA[Aib]EFINWLLAGGPSSGAPPPSK-NH2)
Emax (GLP-1R [1]; Table 3): 95%
EC50 (GLP-1R [1]; Table 3): < 0.1 nM
Emax (GLP-1R [1]; Table 3A): 95%
EC50 (GLP-1R [1]; Table 3A): < 0.1 nM
Emax (GIP-R; Table 3): 35%
EC50 (GIP-R; Table 3): 1 to 10 nM
Emax (GIP-R; Table 3A): 35%
EC50 (GIP-R; Table 3A): 1 to 10 nM
EC50 (GLP-1R [2]): > 1000 nM
